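Compound exposure: 48 hours, 5 concentrations, 96-well plates. Abbreviation: GI50, concentration required for 50% inhibition of growth.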 Activity calls are given as the source filed them. No stated cut-off is given here; in the data, active = GI50 up to about 1.1 µM and inactive = higher.
Assays:
Assay in all cases: inhibition of tumour cell growth, NCI panel, 48 h
[1] = tested on: MOLT-4
[2] = tested on: NCI-H460
[3] = tested on: UACC-257
[4] = tested on: SN12C
[5] = tested on: KM-20L2
[6] = tested on: K562
[7] = tested on: NCI-H23
[8] = tested on: HOP-62
[9] = tested on: NCI-H522
[10] = tested on: Hs-578T
[11] = tested on: SNB-78
[12] = tested on: DMS-273
[13] = tested on: NCI/ADR-RES
[14] = tested on: NCI-H226
[15] = tested on: BT-549
[16] = tested on: DU-145
[17] = tested on: HCT-15
[18] = tested on: EKVX
[19] = tested on: MCF7
[20] = tested on: Malme-3M
[21] = tested on: RXF 393
[22] = tested on: LOX IMVI
[23] = tested on: SNB-75
[24] = tested on: M14
[25] = tested on: MDA-N
[26] = tested on: OVCAR-4
[27] = tested on: SK-MEL-28
[28] = tested on: HT-29
[29] = tested on: SW-620
[30] = tested on: COLO 205
[31] = tested on: OVCAR-5
[32] = tested on: CCRF-CEM
[33] = tested on: HCT-116
[34] = tested on: HL-60
[35] = tested on: M19-MEL
[36] = tested on: U-251
[37] = tested on: OVCAR-3
[38] = tested on: 786-0
[39] = tested on: LXFL 529
[40] = tested on: CAKI-1
[41] = tested on: IGROV-1
[42] = tested on: ACHN
[43] = tested on: A549
[44] = tested on: PC-3
[45] = tested on: KM12
[46] = tested on: SK-MEL-5
[47] = tested on: DLD-1
[48] = tested on: HOP-92
[49] = tested on: HCC 2998
[50] = tested on: SF-539
[51] = tested on: SF-268
[52] = tested on: MDA-MB-231
[53] = tested on: OVCAR-8
[54] = tested on: TK-10
[55] = tested on: MDA-MB-435
[56] = tested on: SF-295
[57] = tested on: SNB-19
[58] = tested on: DMS-114
[59] = tested on: A498
[60] = tested on: SK-MEL-2
[61] = tested on: SR
[62] = tested on: T47D
[63] = tested on: RPMI-8226
[64] = tested on: UO-31
[65] = tested on: SK-OV-3
[66] = tested on: UACC-62

Measured: GI50

C/C(=N\N)C(CN1CCOCC1)C(c1ccccc1)c1c(O)c2ccccc2oc1=O (centres undefined)
> 100 µM: [17]
inactive: [1] 40.5 µM | [2] > 80.7 µM | [3] > 100 µM | [4] > 100 µM | [5] > 100 µM | [6] 47.6 µM | [7] > 100 µM | [8] > 91 µM | [9] > 52 µM | [10] > 100 µM | [11] > 100 µM | [12] > 100 µM | [13] 65.9 µM | [14] > 100 µM | [15] 32.3 µM | [16] > 100 µM | [18] 83.6 µM | [19] 56 µM | [20] > 64.7 µM | [21] 3.38 µM | [22] 26.4 µM | [23] 42.9 µM | [24] > 76.6 µM | [25] > 100 µM | [26] 77.3 µM | [27] > 100 µM | [28] > 100 µM | [29] > 100 µM | [30] > 44.8 µM | [31] > 100 µM | [32] 23.3 µM | [33] > 100 µM | [34] 30.4 µM | [35] > 100 µM | [36] > 76.9 µM | [37] > 61.4 µM | [38] > 95.1 µM | [39] > 100 µM | [40] > 100 µM | [41] > 100 µM | [42] > 100 µM | [43] > 75.2 µM | [44] > 100 µM | [45] > 81.1 µM | [46] > 64.9 µM | [47] > 100 µM | [48] 26.3 µM | [49] > 100 µM | [50] > 100 µM | [51] > 100 µM | [52] 91 µM | [53] > 90.6 µM | [54] > 100 µM | [55] 53.7 µM | [56] > 100 µM | [57] > 100 µM | [58] > 100 µM | [59] 69.8 µM | [60] > 100 µM | [61] 46 µM | [62] 12.4 µM | [63] > 67.1 µM | [64] 44.3 µM | [65] > 100 µM

c1ccc2c(c1)CN1CCCC1CN2 (centres undefined)
> 100 µM: [17]
inactive: [1] > 100 µM | [2] > 100 µM | [3] > 100 µM | [4] > 100 µM | [6] > 100 µM | [7] > 100 µM | [8] > 100 µM | [9] > 100 µM | [10] > 100 µM | [13] > 100 µM | [14] > 100 µM | [15] > 100 µM | [16] > 100 µM | [18] > 100 µM | [19] > 100 µM | [20] > 100 µM | [21] > 100 µM | [22] > 100 µM | [23] > 100 µM | [24] > 100 µM | [25] > 100 µM | [26] > 100 µM | [27] > 100 µM | [28] > 100 µM | [29] > 100 µM | [30] > 100 µM | [31] > 100 µM | [32] > 100 µM | [33] > 100 µM | [34] > 100 µM | [36] > 100 µM | [37] > 100 µM | [38] > 100 µM | [40] > 100 µM | [66] > 100 µM | [41] > 100 µM | [42] > 100 µM | [43] > 100 µM | [44] > 100 µM | [45] > 100 µM | [46] > 100 µM | [48] > 100 µM | [49] > 100 µM | [50] > 100 µM | [51] > 100 µM | [52] > 100 µM | [53] > 100 µM | [54] > 100 µM | [55] > 100 µM | [56] > 100 µM | [57] > 100 µM | [59] > 100 µM | [60] > 100 µM | [61] > 100 µM | [62] > 100 µM | [63] > 100 µM | [64] > 100 µM | [65] > 100 µM
